Source: BindingDB's records for doi:10.1016/s0960-894x(00)00321-8 (Dupont Pharmaceuticals, 2000)

Molecular target: T1, Gag-Pol polyprotein [588-1027]/[588-1147] (Human immunodeficiency virus 1, UniProt P04585)
T1 construct: 588-1027; 588-1147
Test: HIV-1 RT Assay
Conditions: pH 8.2; 37 °C
Excerpt: The IC50 of reverse transcriptase is the concentration that inhibits 50% of recombinant HIV-1 RT RNA-directed DNA polymerase activity in vitro.

Row | Structure (SMILES) | IC50 [nM]
1 | CC(C)C(=O)N1c2ccccc2NC(=O)C1(C#CC1CC1)C(F)(F)F (stereo not drawn) [3-(2-cyclopropylethynyl)-4-(2-methylpropanoyl)-3-(trifluoromethyl)-1,2,3,4-tetrahydroquinoxalin-2-one] | 160
2 | O=C(C1CC1)N1c2ccccc2NC(=O)C1(C#CC1CC1)C(F)(F)F (stereo not drawn) [4-cyclopropanecarbonyl-3-(2-cyclopropylethynyl)-3-(trifluoromethyl)-1,2,3,4-tetrahydroquinoxalin-2-one] | 127
3 | O=C(c1ccccc1)N1c2ccccc2NC(=O)C1(C#CC1CC1)C(F)(F)F (stereo not drawn) [4-benzoyl-3-(2-cyclopropylethynyl)-3-(trifluoromethyl)-1,2,3,4-tetrahydroquinoxalin-2-one] | > 5000
